According to patent publication US20230203029A1 (priority 2020, published 2023):
Where two headings read alike, the source gives them in different places.

Assays:
[1] = molecular target: T1, human MERTK cytoplasmic domain (Homo sapiens, UniProt Q12866); test: biochemical
T1 construct: human MERTK cytoplasmic domain (Carna Biosciences 08-108); purchased Carna Biosciences 08-108
Protocol: Assay 1a—MERTK HTRF KinEASE-TK Assay
The enzymatic reaction was carried out for 30 min at room temperature. 10 μL TK Antibody-Cryptate/Streptavidin-XL665 (Cisbio 610SAXLG) was then added for 60 min, including EDTA containing detection buffer (Cisbio 62SDBRDF) to stop the reaction.

[2] = molecular target: T2, Ba/F3 Pro B-cell line expressing TEL-human MERTK fusion domain (Homo sapiens, UniProt Q12866); type: cell-based
T2 sequence (Q12866 587-858 limits assumed): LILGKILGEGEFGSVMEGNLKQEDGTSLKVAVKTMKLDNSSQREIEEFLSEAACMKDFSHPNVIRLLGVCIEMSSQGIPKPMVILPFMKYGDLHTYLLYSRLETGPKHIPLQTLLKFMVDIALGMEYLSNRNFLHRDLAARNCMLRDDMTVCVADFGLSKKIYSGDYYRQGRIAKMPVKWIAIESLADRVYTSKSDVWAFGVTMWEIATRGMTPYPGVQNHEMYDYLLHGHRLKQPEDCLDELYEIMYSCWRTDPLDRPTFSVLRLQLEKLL
How it was run: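 Ba/F3 cells dependent on BCR-AXL or TEL-MERTK fusion kinase (IL3-free; IL3 only for control lines) treated with compound 48 h at 37 °C, 0.25% DMSO. Viability by CellTiter-Glo luminescence; IC50 for half-maximal inhibition of survival from 4-parameter variable-slope fit.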

[3] = molecular target: T3, Ba/F3 Pro B-cell line expressing BCR-human AXL kinase domain fusion protein (Homo sapiens, UniProt P30530); test: Assay 5 Ba/F3 cell survival assay, BCR-Axl; type: cell-based; conditions: read-out: BCR-Axl Ba/F3 IC50, 48 h, CellTiter-Glo
T3 construct: P11274 (Breakpoint cluster region protein)
T3 sequence (P30530 536-807 limits assumed): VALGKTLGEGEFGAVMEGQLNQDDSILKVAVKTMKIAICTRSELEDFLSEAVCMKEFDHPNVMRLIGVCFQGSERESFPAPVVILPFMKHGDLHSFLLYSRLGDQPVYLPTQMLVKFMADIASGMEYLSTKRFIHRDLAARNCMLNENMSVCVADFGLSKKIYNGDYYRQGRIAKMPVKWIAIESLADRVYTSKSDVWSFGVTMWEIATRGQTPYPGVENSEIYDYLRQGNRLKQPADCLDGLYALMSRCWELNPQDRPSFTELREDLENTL
Protocol: Assay 5—Ba/F3 Cell Survival Assays.
The inhibitory potencies of compounds were assessed in a Ba/F3 cell survival assay, using the Ba/F3 Pro B-cell line, recombinantly expressing a BCR-human AXL kinase domain fusion protein (pACD320/AXL, Advanced Cellular Dynamics Inc), TEL-human MERTK fusion domain (pACD1000/MERTK, Advanced Cellular Dynamics Inc), TEL-human Tyro3 fusion domain (pACD1000/TYRO3, Advanced Cellular Dynamics Inc), or control TEL-none (ACD320, Advanced Cellular Dynamics Inc) BRC-none constructs (ACD1000, Advanced Cellular Dynamics Inc). 10 ng/mL recombinant murine IL3 (R&D, 403-ML-010) was included in the media when propagating negative control TEL-none or BCR-none lines only. […] The final assay DMSO concentration was 0.25%. Compound incubations were conducted for 48 h at 37° C./5% CO2, after which cell plate was equilibrated at room temperature for 20 minutes prior to assessing viability. 15 μl of Promega CellTiter-Glo reagent (G7572) was added to each well for 2 min on an orbital shaker to induce cell lysis.
The plate was then equilibrated for 5 min at room temperature and luminescence read on a BMG Pherastar FSX using the LUM plus optic module. […] Competition curves were then fit to a 4 parameter logistic equation including a variable slope factor to determine the IC50 (compound concentration causing a half-maximal inhibition of cell survival).

[4] = molecular target: T4, human AXL cytoplasmic domain (Homo sapiens, UniProt P30530); test: Assay 1b AXL HTRF KinEASE-TK assay; type: biochemical
T4 construct: human AXL cytoplasmic domain (Thermo Fisher A31515); purchased Thermo Fisher A31515
T4 sequence (P30530 473-894 limits assumed): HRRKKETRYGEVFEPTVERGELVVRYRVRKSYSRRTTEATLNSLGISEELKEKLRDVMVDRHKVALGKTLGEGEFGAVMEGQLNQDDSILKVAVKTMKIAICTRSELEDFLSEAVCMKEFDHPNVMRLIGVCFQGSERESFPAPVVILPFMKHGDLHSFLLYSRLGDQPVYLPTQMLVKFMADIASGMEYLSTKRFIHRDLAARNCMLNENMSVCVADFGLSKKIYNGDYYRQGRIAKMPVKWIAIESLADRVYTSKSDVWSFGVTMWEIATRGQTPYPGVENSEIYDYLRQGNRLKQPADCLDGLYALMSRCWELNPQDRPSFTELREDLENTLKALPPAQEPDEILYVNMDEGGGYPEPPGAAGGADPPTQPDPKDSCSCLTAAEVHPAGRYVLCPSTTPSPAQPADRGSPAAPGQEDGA
How it was run: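 Recombinant cytoplasmic domain (5 nM) in kinase buffer with 5 mM MgCl2, 1 mM MnCl2, 1 mM DTT, 50 nM SEB plus test compounds; reaction 30 min at room temperature. EDTA-containing detection with TK antibody-cryptate/streptavidin-XL665 for 60 min; HTRF 665/620 ratio read. IC50 from 4-parameter logistic fit with variable slope.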

[5] = molecular target: T5, Ba/F3 Pro B-cell line expressing TEL-human Tyro3 fusion domain (Homo sapiens, UniProt Q06418); type: cell-based; conditions: cell survival, 48 h, CellTiter-Glo
T5 sequence (Q06418 518-790 limits assumed): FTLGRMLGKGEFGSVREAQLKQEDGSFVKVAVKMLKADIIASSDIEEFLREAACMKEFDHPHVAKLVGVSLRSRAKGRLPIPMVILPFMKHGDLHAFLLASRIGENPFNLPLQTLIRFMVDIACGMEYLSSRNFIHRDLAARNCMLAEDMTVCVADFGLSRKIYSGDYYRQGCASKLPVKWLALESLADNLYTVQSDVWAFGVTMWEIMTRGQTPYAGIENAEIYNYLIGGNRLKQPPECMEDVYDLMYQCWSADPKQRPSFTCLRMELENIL

[6] = 30 uM ATP, read-out: Assay 1a Mer IC50 30 uM ATP
[7] = cell survival, 48 h, CellTiter-Glo; read-out: TEL-MERTK Ba/F3 IC50

T1 sequence (Q12866 527-999): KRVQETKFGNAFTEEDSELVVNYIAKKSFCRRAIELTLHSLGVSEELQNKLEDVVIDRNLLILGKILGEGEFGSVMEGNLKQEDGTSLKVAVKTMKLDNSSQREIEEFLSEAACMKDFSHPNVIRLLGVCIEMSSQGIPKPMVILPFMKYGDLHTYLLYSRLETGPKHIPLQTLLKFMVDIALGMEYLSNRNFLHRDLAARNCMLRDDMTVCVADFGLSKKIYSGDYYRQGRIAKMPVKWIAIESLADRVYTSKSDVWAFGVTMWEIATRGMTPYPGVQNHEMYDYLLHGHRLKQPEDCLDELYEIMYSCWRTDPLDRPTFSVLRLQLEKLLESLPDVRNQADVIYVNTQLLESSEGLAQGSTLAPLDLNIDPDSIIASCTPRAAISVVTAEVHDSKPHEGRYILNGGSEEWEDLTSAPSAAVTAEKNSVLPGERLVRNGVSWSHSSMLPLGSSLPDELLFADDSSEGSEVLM

IC50 [4] | IC50 [1, 6] | IC50 ([4]; # 1 μM ATP used in assay, read-out: Assay 1b Axl IC50) | SMILES | IC50 [1] | IC50 ([2]; read-out: TEL-MERTK Ba/F3 IC50; cell survival, 48 h, CellTiter-Glo) | IC50 [3] | IC50 [5] | IC50 [2, 7]
296 nM | 43 nM | – | Cc1cc(NC(=O)c2cccn(-c3ccccc3)c2=O)ccc1Oc1ccnc2cnc(C(=O)NC3CCN(C)CC3)cc12 [Example 34, 4-[2-Methyl-4-[(2-oxo-1-phenyl-pyridine-3-carbonyl)amino]phenoxy]-N-(1-methyl-4-piperidyl)-1,7-naphthyridine-6-carboxamide] | – | – | 73 nM | 128 nM | 144 nM
11 nM | 14 nM | – | CC(C)n1cc(C(=O)Nc2ccc(Oc3ccnc4cnc(C(=O)NC5CCN(C)CC5)cc34)cc2)c(=O)n(-c2ccc(F)cn2)c1=O [Example 9, 4-[4-[[3-(5-Fluoro-2-pyridyl)-1-isopropyl-2,4-dioxo-pyrimidine-5-carbonyl]amino]phenoxy]-N-(1-methyl-4-piperidyl)-1,7-naphthyridine-6-carboxamide] | – | – | 6 nM | 252 nM | 85 nM
18 nM | 3 nM | – | O=C(Nc1ccc(Oc2ccnc3cnc(C4=CCN(C5COC5)CC4)cc23)cn1)c1cccn(-c2ccc(F)cc2)c1=O [Example 16.2, 1-(4-fluorophenyl)-N-[5-[[6-[1-(oxetan-3-yl)-3,6-dihydro-2H-pyridin-4-yl]-1,7-naphthyridin-4-yl]oxy]-2-pyridyl]-2-oxo-pyridine-3-carboxamide] | – | – | 15 nM | 144 nM | 14 nM
3 nM | 11 nM | – | CC(C)n1cc(C(=O)Nc2ccc(Oc3ccnc4cnc(C(=O)NC5CCN(C(=O)OC(C)(C)C)CC5)cc34)cn2)c(=O)n(-c2ccc(F)cc2)c1=O [Example 27.1, tert-butyl 4-[[4-[[6-[[3-(4-fluorophenyl)-1-isopropyl-2,4-dioxo-pyrimidine-5-carbonyl]amino]-3-pyridyl]oxy]-1,7-naphthyridine-6-carbonyl]amino]piperidine-1-carboxylate] | – | – | 15 nM | 881 nM | 67 nM
27 nM | 4 nM | – | CC(C)(C)OC(=O)N1CCC(c2cc3c(Oc4ccc(NC(=O)c5cccn(-c6ccc(F)cc6)c5=O)nc4)ccnc3cn2)C1 (stereo not drawn) [Example 16.1, tert-butyl 3-[4-[[6-[[1-(4-fluorophenyl)-2-oxo-pyridine-3-carbonyl]amino]-3-pyridyl]oxy]-1,7-naphthyridin-6-yl]pyrrolidine-1-carboxylate] | – | – | 76 nM | 1930 nM | 70 nM
– | 17 nM | 4 nM | CC(C)n1cc(C(=O)Nc2ccc(Oc3ccnc4cnc(C(=O)NC5CC6CCC(C5)N6C)cc34)cn2)c(=O)n(-c2ccc(F)cc2)c1=O (stereo not drawn) [Example 27.2, 4-[[6-[[3-(4-fluorophenyl)-1-isopropyl-2,4-dioxo-pyrimidine-5-carbonyl]amino]-3-pyridyl]oxy]-N-(8-methyl-8-azabicyclo[3.2.1]octan-3-yl)-1,7-naphthyridine-6-carboxamide] | – | – | 13 nM | 376 nM | 49 nM
29 nM | 5 nM | – | O=C(Nc1ccc(Oc2ccnc3cnc(N4CCNCC4)cc23)cn1)c1cccn(-c2ccc(F)cc2)c1=O [Example 10, 1-(4-fluorophenyl)-2-oxo-N-[5-[(6-piperazin-1-yl-1,7-naphthyridin-4-yl)oxy]-2-pyridyl]pyridine-3-carboxamide] | – | – | 28 nM | 148 nM | 24 nM
46 nM | 9 nM | – | O=C(Nc1ccc(Oc2ccnc3cnc(C4CCNCC4)cc23)cn1)c1cccn(-c2ccc(F)cc2)c1=O [Example 21.1, 1-(4-fluorophenyl)-2-oxo-N-[5-[[6-(4-piperidyl)-1,7-naphthyridin-4-yl]oxy]-2-pyridyl]pyridine-3-carboxamide] | – | – | 46 nM | 861 nM | 35 nM
10 nM | 10 nM | – | CC(C)n1cc(C(=O)Nc2ccc(Oc3ccnc4cnc(C(=O)NC5CCN(C)CC5)cc34)cc2)c(=O)n(-c2ccc(F)cc2)c1=O [Example 8.2, 4-[4-[[3-(4-fluorophenyl)-1-isopropyl-2,4-dioxo-pyrimidine-5-carbonyl]amino]phenoxy]-N-(1-methyl-4-piperidyl)-1,7-naphthyridine-6-carboxamide] | – | – | 3 nM | 120 nM | 30 nM
7 nM | 1 nM | – | CC(C)n1cc(C(=O)Nc2ccc(Oc3ccnc4cnc(N5CCN(C6COC6)CC5)cc34)cn2)c(=O)c(-c2ccc(F)cc2)c1 [Example 20.2, 5-(4-fluorophenyl)-1-isopropyl-N-[5-[[6-[4-(oxetan-3-yl)piperazin-1-yl]-1,7-naphthyridin-4-yl]oxy]-2-pyridyl]-4-oxo-pyridine-3-carboxamide] | – | – | 2 nM | 220 nM | 5 nM
5 nM | 3 nM | – | CC(C)n1cc(C(=O)Nc2ccc(Oc3ccnc4cnc(N5CCNCC5)cc34)cc2)c(=O)n(-c2ccc(F)cc2)c1=O [Example 12.5, 3-(4-fluorophenyl)-1-isopropyl-2,4-dioxo-N-[4-[(6-piperazin-1-yl-1,7-naphthyridin-4-yl)oxy]phenyl]pyrimidine-5-carboxamide] | – | – | 5 nM | 428 nM | 38 nM

SMILES | IC50 [4] | IC50 [1, 6] | IC50 ([4]; # 1 μM ATP used in assay, read-out: Assay 1b Axl IC50) | IC50 [1] | IC50 ([2]; read-out: TEL-MERTK Ba/F3 IC50; cell survival, 48 h, CellTiter-Glo) | IC50 [3] | IC50 [5] | IC50 [2, 7]
CC(C)n1cc(C(=O)Nc2ccc(Oc3ccnc4cnc(N5CCN(C6COC6)CC5)cc34)cn2)c(=O)n(-c2ccc(F)cc2)c1=O [Example 20.1, 3-(4-fluorophenyl)-1-isopropyl-N-[5-[[6-[4-(oxetan-3-yl)piperazin-1-yl]-1,7-naphthyridin-4-yl]oxy]-2-pyridyl]-2,4-dioxo-pyrimidine-5-carboxamide] | 5 nM | – | – | 5 nM | 27 nM | 15 nM | 452 nM | –
